For data set [1] the following is noted: according to WHO; cited from earlier work.
In a further data set the test system is mashroom tyrosinase. Description: Mushroom-derived tyrosinase activity inhibition (absorbance increase at 475 nm). The format is biochemical. The following applies: aqueous solutions 0.1, 0.05 and 0.03 µl/ml; tyrosine substrate, pH 6.8, 37°C, 0-15 minutes. As for the experimental part: Fig. 1 is a figure showing the test results of the tyrosinase activity inhibition by vitamin E solutions on mashroom tyrosinase. In the figure, -▲- stands for the absorbance at 475 nm of an aqueous solution of a concentration of vitamin E of 0.1 µl/ml, -●- for an aqueous solution of concentration of vitamin E of 0.05 µl/ml, -x- for an aqueous solution of a concentration of vitamin E of 0.03 µl/ml and -o- for an aqueous solution containing no vitamin E (control).
a. Test on the Mashroom-derived Tyrosinase Activity Inhibition
Samples were prepared by adding 1.0 ml of aqueous solutions containing vitamin E at concentrations of 0.1 µl/ml, 0.05 µl/ml and 0.03 µl/ml respectively to 1.0 ml of a tyrosine solution (0.3 mg/ml), 0.9 ml of a 0.1 M phosphate buffer (pH 6.8) and 0.1 ml of mashroom tyrosinase (400 U/ml), also a solution containing no vitamin E was prepared as a control, and the increase in absorbance at 475 nm at 37°C for 0-15 minutes was measured.

In data set [2] the target is T1, tyrosinase from a B16 cell homogenate (Mus musculus, UniProt P11344).
T1 construct: 0.1 ml of a 11000 G supernatant of a B16 cell homogenate; endogenous in cells; host or cells: B16 mouse melanoma cells (11000 G supernatant of homogenate)
T1 sequence (P11344 19-533): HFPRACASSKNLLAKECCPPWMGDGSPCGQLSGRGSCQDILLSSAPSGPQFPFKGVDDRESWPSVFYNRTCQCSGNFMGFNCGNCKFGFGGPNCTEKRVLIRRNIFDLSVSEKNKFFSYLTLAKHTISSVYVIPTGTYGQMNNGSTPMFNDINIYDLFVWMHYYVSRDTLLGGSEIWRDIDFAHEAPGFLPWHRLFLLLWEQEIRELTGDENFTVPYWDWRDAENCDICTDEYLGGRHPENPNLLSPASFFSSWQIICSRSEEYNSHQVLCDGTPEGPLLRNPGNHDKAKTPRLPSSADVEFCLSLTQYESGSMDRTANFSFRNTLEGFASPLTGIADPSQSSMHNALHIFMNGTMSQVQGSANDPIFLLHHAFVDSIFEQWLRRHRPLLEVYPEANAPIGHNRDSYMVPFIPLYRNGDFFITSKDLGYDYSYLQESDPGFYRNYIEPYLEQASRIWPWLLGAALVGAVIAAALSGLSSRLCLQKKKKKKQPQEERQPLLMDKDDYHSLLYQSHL
In words: B16 cell-derived tyrosinase activity inhibition (absorbance increase at 475 nm). The format is biochemical. The following applies: aqueous solutions 0.1, 0.05 and 0.03 µl/ml; 10 mM dopa, pH 6.8, 37°C, 0.15 minutes. As for the experimental part:
Fig. 2 is a figure showing the test results of the tyrosinase activity inhibition by vitamin E solutions on tyrosinase from a B16 cell homogenate. In the figure, -▲-, -●- ,-x- and -o- have the same significance as in Fig. 1.
b. Test on the B16 cell-derived tyrosinase Activity Inhibition
Samples were prepared respectively by adding 1.0 ml of aqueous solutions containing vitamin E at concentrations of 0.1 µl/ml, 0.05 µl/ml and 0.03 µl/ml prepared in the production examples described hereinbelow to 0.1 ml of a 11000 G supernatant of a B16 cell homogenate, 1.0 ml of a 10 mM dopa and 0.9 ml of a 0.1 M phosphate buffer (pH 6.8), also a solution containing no vitamin E was prepared as a control, and the increase in absorbance at 475 nm at 37°C for […] was measured.

The subject of data set [3] is B16 cells derived from the mouse melanoma. In words: Test on B16 cultured cells derived from mouse melanoma: degree of melanin generation (blackening/whitening) observed by the naked eye. Format: cell-based. Details: key: -: Not whitened at all; +: Slightly whitened; +: Considerably whitened; ++: Whitening clearly descernible; +++: Whitening proceeded to such degree that blackening cannot be observed. The following applies: culture 5 days at 37°C. As for the experimental part:
I. Test on B16 Cultured Cells Derived from Mouse Melanoma (Testing Method)
Aqueous solution of vitamin E was added 30 µg/ml, 20 µg/ml, 10 µg/ml and 2 µg/ml respectively in final concentration to the culture medium for B16 cells derived from the mouse melanoma. After culture period for 5 days at 37°C, the degree of melanin generation (degree of blackening) was observed by the naked eyes.

We go through 1 substance from patent EP0241573A1, “Topical agents for inhibiting the melanin generation” (Sansho Seiyaku Co., Ltd., priority 1986, dated 1987).

For vitamin E, the acute toxicity result in data set [1] is “no acute toxicity”. Moreover, the “effect to inhibit the mashroom tyrosinase” value with mashroom tyrosinase is “not observed”. In data set [2], the “effect to inhibit the B16 cell tyrosinase” value is listed as “not observed”. In addition, the “Degree of Whitening” value is recorded as “+” in data set [3] (10 µg/ml final concentration), “++” in data set [3] (20 µg/ml final concentration) and “+++” in data set [3] (30 µg/ml final concentration).
